Measurements from patent publication US11053204B2, “Pyrimidinyloxy benzene derivatives as herbicides” (FMC Corporation, priority 2015, dated 2021).

How the values were obtained:
Type in all cases: in vivo
[1] = tested on: sedge, umbrella (small-flower umbrella sedge, Cyperus difformis); test: Test B flooded paddy test, plant response rating; conditions: 250 g ai/ha; Flood; scale of 0 to 100 where 0 is no effect and 100 is complete control; 13 to 15 days
Outline: (§1)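 Under a constant 3 cm flood, test compounds went directly into the paddy water. Following 13 to 15 days of greenhouse growth, treated species and controls were compared by eye.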

rice (Oryza sativa) = test: Test B flooded paddy test, plant response rating; conditions: 250 g ai/ha; Flood; scale of 0 to 100 where 0 is no effect and 100 is complete control; 13 to 15 days
Outline: as §1

[2] = tested on: ducksalad (Heteranthera limosa); test: Test B flooded paddy test, plant response rating; conditions: 250 g ai/ha; Flood; scale of 0 to 100 where 0 is no effect and 100 is complete control; 13 to 15 days
Outline: as §1

[3] = tested on: barnyardgrass (Echinochloa crus-galli); test: Test B flooded paddy test, plant response rating; conditions: 250 g ai/ha; Flood; scale of 0 to 100 where 0 is no effect and 100 is complete control; 13 to 15 days
Outline: as §1

[4] = tested on: ragweed (common ragweed, Ambrosia elatior); test: Test A preemergence, visual injury rating; conditions: for Ragweed plant response rating: 0 to 100 scale (0 no effect, 100 complete control); for Plant response rating, Ragweed: 31 g ai/ha, 0 to 100 scale, 0 no effect, 100 complete control
Outline: (§2)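 Greenhouse pot test, loam/sand soil. Formulation: non-phytotoxic solvent mix plus surfactant. Pre: directed spray onto soil after sowing. Post: plants at 1–2 leaf, 2–10 cm. Rated visually vs untreated controls at ~10 d, 0 (no effect) to 100 (complete control).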

kochia (Kochia scoparia) [5] = test: Test A preemergence, visual injury rating; conditions: for Kochia plant response rating: 0 to 100 scale (0 no effect, 100 complete control); for Plant response rating, Kochia: 31 g ai/ha, 0 to 100 scale, 0 no effect, 100 complete control
Outline: as §2

[6] = tested on: pigweed (Amaranthus retroflexus); test: Test A preemergence, visual injury rating; conditions: for Pigweed plant response rating: 0 to 100 scale (0 no effect, 100 complete control); for Plant response rating, Pigweed: 31 g ai/ha, 0 to 100 scale, 0 no effect, 100 complete control
Outline: as §2

[7] = tested on: giant foxtail (Setaria faberii); test: Test A preemergence, visual injury rating; conditions: for Foxtail, Giant plant response rating: 0 to 100 scale (0 no effect, 100 complete control); for Plant response rating, Foxtail, Giant: 31 g ai/ha, 0 to 100 scale, 0 no effect, 100 complete control
Outline: as §2

[8] = tested on: Italian ryegrass (Lolium multiflorum); test: Test A preemergence, visual injury rating; conditions: for Ryegrass, Italian plant response rating: 0 to 100 scale (0 no effect, 100 complete control); for Plant response rating, Ryegrass, Italian: 31 g ai/ha, 0 to 100 scale, 0 no effect, 100 complete control
Outline: as §2

[9] = tested on: barnyardgrass (Echinochloa crus-galli); test: Test A preemergence, visual injury rating; conditions: for Barnyardgrass plant response rating: 0 to 100 scale (0 no effect, 100 complete control); for Plant response rating, Barnyardgrass: 31 g ai/ha, 0 to 100 scale, 0 no effect, 100 complete control
Outline: as §2

[10] = tested on: ragweed (common ragweed, Ambrosia elatior); test: Test A postemergence, visual injury rating; conditions: 0 is no effect, 100 is complete control; for Ragweed plant response rating: 31 g ai/ha, 0 to 100 scale, approximately 10 days
Outline: as §2

kochia (Kochia scoparia) [11] = test: Test A postemergence, visual injury rating; conditions: 0 is no effect, 100 is complete control; for Kochia plant response rating: 31 g ai/ha, 0 to 100 scale, approximately 10 days
Outline: as §2

[12] = tested on: pigweed (Amaranthus retroflexus); test: Test A postemergence, visual injury rating; conditions: 0 is no effect, 100 is complete control; for Pigweed plant response rating: 31 g ai/ha, 0 to 100 scale, approximately 10 days
Outline: as §2

corn (Zea mays) = test: Test A postemergence, visual injury rating; conditions: 0 is no effect, 100 is complete control; for Corn plant response rating: 31 g ai/ha, 0 to 100 scale, approximately 10 days
Outline: as §2

[13] = tested on: giant foxtail (Setaria faberii); test: Test A postemergence, visual injury rating; conditions: 0 is no effect, 100 is complete control; for Foxtail, Giant plant response rating: 31 g ai/ha, 0 to 100 scale, approximately 10 days
Outline: as §2

[14] = tested on: Italian ryegrass (Lolium multiflorum); test: Test A postemergence, visual injury rating; conditions: 0 is no effect, 100 is complete control; for Ryegrass, Italian plant response rating: 31 g ai/ha, 0 to 100 scale, approximately 10 days
Outline: as §2

[15] = tested on: wheat (Triticum aestivum); test: Test A postemergence, visual injury rating; conditions: 0 is no effect, 100 is complete control; for Wheat plant response rating: 31 g ai/ha, 0 to 100 scale, approximately 10 days
Outline: as §2

[16] = tested on: galium (catchweed bedstraw, Galium aparine); test: Test A postemergence, visual injury rating; conditions: 0 is no effect, 100 is complete control; for Galium plant response rating: 31 g ai/ha, 0 to 100 scale, approximately 10 days
Outline: as §2

[17] = tested on: blackgrass (Alopecurus myosuroides); test: Test A postemergence, visual injury rating; conditions: 0 is no effect, 100 is complete control; for Blackgrass plant response rating: 31 g ai/ha, 0 to 100 scale, approximately 10 days
Outline: as §2

[18] = tested on: barnyardgrass (Echinochloa crus-galli); test: Test A postemergence, visual injury rating; conditions: 0 is no effect, 100 is complete control; for Barnyardgrass plant response rating: 31 g ai/ha, 0 to 100 scale, approximately 10 days
Outline: as §2

N#CCOC(=O)c1c(F)cccc1Oc1ncc(Cl)cn1 [Compound 49]
Plant response rating, Sedge, Umbrella [1]: 0 | Plant response rating, Rice (rice (Oryza sativa)): 20 | Plant response rating, Ducksalad [2]: 0 | Plant response rating, Barnyardgrass [3]: 20 | Ragweed plant response rating ([4]; 125 g ai/ha): 0 | Ragweed plant response rating ([4]; 500 g ai/ha): 0 | Kochia plant response rating (kochia (Kochia scoparia) [5]; 125 g ai/ha): 0 | Kochia plant response rating (kochia (Kochia scoparia) [5]; 500 g ai/ha): 0 | Pigweed plant response rating ([6]; 125 g ai/ha): 0 | Pigweed plant response rating ([6]; 500 g ai/ha): 0 | Foxtail, Giant plant response rating ([7]; 125 g ai/ha): 0 | Foxtail, Giant plant response rating ([7]; 500 g ai/ha): 0 | Ryegrass, Italian plant response rating ([8]; 125 g ai/ha): 0 | Ryegrass, Italian plant response rating ([8]; 500 g ai/ha): 0 | Barnyardgrass plant response rating ([9]; 125 g ai/ha): 0 | Barnyardgrass plant response rating ([9]; 500 g ai/ha): 0 | Ragweed plant response rating (0 to 100 scale) ([10]; 125 g ai/ha): 0 | Ragweed plant response rating (0 to 100 scale) ([10]; 500 g ai/ha): 0 | Kochia plant response rating (0 to 100 scale) (kochia (Kochia scoparia) [11]; 125 g ai/ha): 0 | Kochia plant response rating (0 to 100 scale) (kochia (Kochia scoparia) [11]; 500 g ai/ha): 0 | Pigweed plant response rating (0 to 100 scale) ([12]; 125 g ai/ha): 0 | Pigweed plant response rating (0 to 100 scale) ([12]; 500 g ai/ha): 0 | Corn plant response rating (0 to 100 scale) (corn (Zea mays); 125 g ai/ha): 0 | Corn plant response rating (0 to 100 scale) (corn (Zea mays); 500 g ai/ha): 0 | Foxtail, Giant plant response rating (0 to 100 scale) ([13]; 125 g ai/ha): 0 | Foxtail, Giant plant response rating (0 to 100 scale) ([13]; 500 g ai/ha): 0 | Ryegrass, Italian plant response rating (0 to 100 scale) ([14]; 125 g ai/ha): 0 | Ryegrass, Italian plant response rating (0 to 100 scale) ([14]; 500 g ai/ha): 0 | Wheat plant response rating (0 to 100 scale) ([15]; 125 g ai/ha): 0 | Wheat plant response rating (0 to 100 scale) ([15]; 500 g ai/ha): 0 | Galium plant response rating (0 to 100 scale) ([16]; 125 g ai/ha): 0 | Galium plant response rating (0 to 100 scale) ([16]; 500 g ai/ha): 0 | Blackgrass plant response rating (0 to 100 scale) ([17]; 125 g ai/ha): 0 | Blackgrass plant response rating (0 to 100 scale) ([17]; 500 g ai/ha): 0 | Barnyardgrass plant response rating (0 to 100 scale) ([18]; 125 g ai/ha): 0 | Barnyardgrass plant response rating (0 to 100 scale) ([18]; 500 g ai/ha): 0

O=C(OC/C=C/C(F)(F)F)c1c(Br)cccc1Oc1ncc(Cl)cn1 [Compound 50]
Plant response rating, Sedge, Umbrella [1]: 80 | Plant response rating, Rice (rice (Oryza sativa)): 0 | Plant response rating, Ducksalad [2]: 65 | Plant response rating, Barnyardgrass [3]: 0 | Plant response rating, Ragweed [4]: 0 | Ragweed plant response rating ([4]; 125 g ai/ha): 0 | Plant response rating, Kochia (kochia (Kochia scoparia) [5]): 0 | Kochia plant response rating (kochia (Kochia scoparia) [5]; 125 g ai/ha): 0 | Plant response rating, Pigweed [6]: 0 | Pigweed plant response rating ([6]; 125 g ai/ha): 90 | Plant response rating, Foxtail, Giant [7]: 50 | Foxtail, Giant plant response rating ([7]; 125 g ai/ha): 100 | Plant response rating, Ryegrass, Italian [8]: 0 | Ryegrass, Italian plant response rating ([8]; 125 g ai/ha): 0 | Plant response rating, Barnyardgrass [9]: 0 | Barnyardgrass plant response rating ([9]; 125 g ai/ha): 10 | Ragweed plant response rating [10]: 0 | Ragweed plant response rating (0 to 100 scale) ([10]; 125 g ai/ha): 0 | Kochia plant response rating (kochia (Kochia scoparia) [11]): 60 | Kochia plant response rating (0 to 100 scale) (kochia (Kochia scoparia) [11]; 125 g ai/ha): 90 | Pigweed plant response rating [12]: 80 | Pigweed plant response rating (0 to 100 scale) ([12]; 125 g ai/ha): 100 | Corn plant response rating (corn (Zea mays)): 10 | Corn plant response rating (0 to 100 scale) (corn (Zea mays); 125 g ai/ha): 10 | Foxtail, Giant plant response rating [13]: 20 | Foxtail, Giant plant response rating (0 to 100 scale) ([13]; 125 g ai/ha): 70 | Ryegrass, Italian plant response rating [14]: 0 | Ryegrass, Italian plant response rating (0 to 100 scale) ([14]; 125 g ai/ha): 20 | Wheat plant response rating [15]: 0 | Wheat plant response rating (0 to 100 scale) ([15]; 125 g ai/ha): 0 | Galium plant response rating [16]: 60 | Galium plant response rating (0 to 100 scale) ([16]; 125 g ai/ha): 90 | Blackgrass plant response rating [17]: 0 | Blackgrass plant response rating (0 to 100 scale) ([17]; 125 g ai/ha): 20 | Barnyardgrass plant response rating [18]: 0 | Barnyardgrass plant response rating (0 to 100 scale) ([18]; 125 g ai/ha): 20

COc1cccc(Oc2ncc(Cl)cn2)c1C(C)=O [Compound 51]
Plant response rating, Sedge, Umbrella [1]: 0 | Plant response rating, Rice (rice (Oryza sativa)): 15 | Plant response rating, Ducksalad [2]: 0 | Plant response rating, Barnyardgrass [3]: 15 | Plant response rating, Ragweed [4]: 0 | Ragweed plant response rating ([4]; 125 g ai/ha): 0 | Plant response rating, Kochia (kochia (Kochia scoparia) [5]): 0 | Kochia plant response rating (kochia (Kochia scoparia) [5]; 125 g ai/ha): 0 | Plant response rating, Pigweed [6]: 0 | Pigweed plant response rating ([6]; 125 g ai/ha): 0 | Plant response rating, Foxtail, Giant [7]: 0 | Foxtail, Giant plant response rating ([7]; 125 g ai/ha): 0 | Plant response rating, Ryegrass, Italian [8]: 0 | Ryegrass, Italian plant response rating ([8]; 125 g ai/ha): 0 | Plant response rating, Barnyardgrass [9]: 0 | Barnyardgrass plant response rating ([9]; 125 g ai/ha): 0 | Ragweed plant response rating [10]: 0 | Ragweed plant response rating (0 to 100 scale) ([10]; 125 g ai/ha): 0 | Kochia plant response rating (kochia (Kochia scoparia) [11]): 0 | Kochia plant response rating (0 to 100 scale) (kochia (Kochia scoparia) [11]; 125 g ai/ha): 0 | Pigweed plant response rating [12]: 0 | Pigweed plant response rating (0 to 100 scale) ([12]; 125 g ai/ha): 0 | Corn plant response rating (corn (Zea mays)): 0 | Corn plant response rating (0 to 100 scale) (corn (Zea mays); 125 g ai/ha): 0 | Foxtail, Giant plant response rating [13]: 0 | Foxtail, Giant plant response rating (0 to 100 scale) ([13]; 125 g ai/ha): 0 | Ryegrass, Italian plant response rating [14]: 0 | Ryegrass, Italian plant response rating (0 to 100 scale) ([14]; 125 g ai/ha): 0 | Wheat plant response rating [15]: 0 | Wheat plant response rating (0 to 100 scale) ([15]; 125 g ai/ha): 0 | Galium plant response rating [16]: 0 | Galium plant response rating (0 to 100 scale) ([16]; 125 g ai/ha): 10 | Blackgrass plant response rating [17]: 0 | Blackgrass plant response rating (0 to 100 scale) ([17]; 125 g ai/ha): 0 | Barnyardgrass plant response rating [18]: 0 | Barnyardgrass plant response rating (0 to 100 scale) ([18]; 125 g ai/ha): 0
